Laboratory results from patent publication EP0449699A2, “Pyrazole derivatives as angiotensin II-receptor antagonists, process for their preparation and pharmaceutical compositions containing them” (LABORATOIRES UPSA, priority 1990, dated 1991).

System: récepteurs surrénaliens de l'angiotensine II
Assay: Displacement of radioligand [125I]-SIAII specifically bound to adrenal angiotensin II receptors (rat adrenal homogenate)
Format: binding
Settings: 60 min, 25°C
Excerpt: L'affinité des produits des exemples pour les récepteurs de l'angiotensine II est évaluée par technique de déplacement d'un radioligand spécifiquement fixé sur les récepteurs surrénaliens de l'angiotensine Il, chez le rat.
Une aliquote d'un homogénat de surrénales de rat incube en présence d'une concentration unique de [^125I]-SIAII (Sar^1, Tyr^4, Ile^8 - angiotensine II), antagoniste des récepteurs de l'angiotensine II, et de deux concentrations d'agents compétiteurs (10^-5 M, 10-^7 M) durant 60 min à 25°C.
La réaction est achevée par ajout de tampon, puis rapide filtration à travers des filtres de papier de verre. La liaison non spécifique est déterminée en présence d'angiotensine Il.
Les résultats sont exprimés, pour les concentrations testées, en pourcentage de déplacement du radioligand spécifiquement fixé sur les récepteurs surrénaliens de l'angiotensine Il.

| % de déplacement du ligand marqué (competitor 1E-5 M, 10 µM) [%] | % de déplacement du ligand marqué (competitor 1E-7 M, 0.1 µM) [%] | SMILES |
| --- | --- | --- |
| 62 | 10 | CCCCc1nn(C)c(O)c1Cc1ccc(-c2ccccc2C(=O)O)cc1 [Exemple 36, Acide [Méthyl-1 n-butyl-3 hydroxy-5 pyrazol-yl-4] méthyl-4' biphényl-2 carboxylique] |
| 85 | 48 | CCCc1nn(C)c(OCC(=O)O)c1Cc1ccc(NC(=O)c2ccccc2S(=O)(=O)O)cc1 [Exemple 35, Acide [Méthyl-1 n-propyl-3 [(sulfo-2 benzoyl amino)-4 benzyl]-4 pyrazol-yl-5] oxy acétique] |
| 67 | 35 | CCCCc1nn(C)c(COC)c1Cc1ccc(-c2ccccc2-c2nnn[nH]2)cc1 [Exemple 118, Méthyl-1 n-Butyl-3 [(tétrazolyl-5)2' biphényl-yl-4] méthyl-4 méthoxy méthyl-5 pyrazole] |
| 82 | 34 | CCCc1nn(C)c(OCC(=O)OC)c1Cc1ccc(NC(=O)c2ccccc2C(=O)O)cc1 [Exemple 28, [Méthyl-1 n-propyl-3 ((carboxy-2 benzoyl amino)-4 benzyl)-4 pyrazol-yl-5] oxyacétatede méthyle] |
| 58 | 24 | CCCc1nn(C)c(O)c1Cc1ccc(-c2ccccc2-c2nnn[nH]2)cc1 [Exemple 71, Méthyl-1 n-Propyl-3 hydroxy-5 [(tétrazolyl-5)-2' biphényl-yl-4] méthyl-4 pyrazole] |

Second part, the compound before the results:

| SMILES | % de déplacement du ligand marqué (competitor 1E-5 M, 10 µM) [%] | % de déplacement du ligand marqué (competitor 1E-7 M, 0.1 µM) [%] |
| --- | --- | --- |
| CCCc1n[nH]c(CO)c1Cc1ccc(NC(=O)c2ccccc2S(=O)(=O)O)cc1 [Exemple 116, Acide ((n-Propyl-3 hydroxy méthyl-5 pyrazol-yl-4)méthylphényl-yl-4] amino carbonyl-2 benzène sulfonique] | 82 | 12 |
| CCCc1nn(CC(F)(F)F)c(OCC(=O)OC)c1Cc1ccc(NC(=O)c2c(Cl)ccc(Cl)c2C(=O)O)cc1 [Exemple 32, [(trifluoro-2,2,2 éthyl)-1 n-propyl-3 ((carboxy-2 dichloro-3,6-benzoyl amino)-4 benzyl)-4 pyrazol-yl-5] oxyacétatede méthyle] | 98 | 52 |
| CCCCc1nn(C)c(OCC(=O)N2CCOCC2)c1Cc1ccc(NC(=O)c2ccccc2NS(=O)(=O)C(F)(F)F)cc1 [Exemple 130, N-[[Méthyl-1 n-Butyl-3 [(trifluoro méthyl sulfonyl amino-2 benzoyl)amino-4 benryl]-4 pyrazol-yl-5]oxyacétyl] morpholine] | 74 | 33 |
| CCCc1nn(CC(=O)OCC)c(OCC(=O)OCC)c1Cc1ccc(NC(=O)c2c(Cl)ccc(Cl)c2C(=O)O)cc1 [Exemple 44, Acide [[(Ethoxy carbonyl méthyl)-1 n-propyl-3 (Ethoxy carbonyl méthyloxy)-5 pyrazol-yl-4]méthylphényl-yl-4] amino carbonyl-2 dlchloro-3,6-benzoïque] | 96 | 9 |
| CCCc1nn(C)c(OCC(=O)OCC)c1Cc1ccc(-c2ccsc2-c2nnn[nH]2)cc1 [Exemple 141, [Méthyl-1 n-propyl-3 [[(tétrazolyl-5)-2 thiényl-3]-4 benzyl]-4 pyrazol-yl-5] oxy acétate d'éthyle] | 64 | 9 |
| CCCc1nn(CC(F)(F)F)c(OCC(=O)OCC)c1Cc1ccc(-c2ccccc2-c2nn[nH]n2)cc1 [Exemple 84, ((Trifluoro-2,2,2 éthyl)-1 n-Propyl-3 [(tétrazolyl-5)-2' biphényl-yl-4]méthyl-4 pyrazol-yl-5] oxy acétate d'éthyle] | 65 | 51 |
| CCCCc1nn(CC(F)(F)F)c(OCC(=O)OCC)c1Cc1ccc(-c2ccccc2-c2nn[nH]n2)cc1 [Exemple 78, [(trifluoro-2,2,2éthyl)-1 n-Butyl-3 [(tétrazolyl-5)-2' biphényl-yl-4]méthyl-4 pyrazol-yl-5] oxy acétate d'éthyle] | 73 | 58 |
| CCCc1nn(C)c(OCC(=O)OCC)c1Cc1ccc(-c2ccccc2-c2nnn[nH]2)cc1 [Exemple 70, [Méthyl-1 n-Propyl-3 [(tétrazolyl-5)-2' biphényl-yl-4]méthyl-4 pyrazol-yl-5] oxy acétate d'éthyle] | 67 | 49 |
| CCCc1nn(C)c(COC)c1Cc1ccc(-c2ccccc2-c2nnn[nH]2)cc1 [Exemple 117, Méthyl-1 n-propyl-3 [(tétrazolyl-5)-2'biphényl-yl-4] méthyl-4 méthoxy méthyl-5 pyrazole] | 61 | 35 |
| CCCc1nn(C)c(OCC(=O)OCC)c1Cc1ccc(NC(=O)c2c(Cl)ccc(Cl)c2C(=O)O)cc1 [Exemple 30, [Méthyl-1 n-propyl-3 ((carboxy-2 dichloro-3,6-benzoyl amino)-4 benzyl)-4 pyrazol-yl-5] oxyacétate d'éthyle] | 96 | 63 |
| CCCCc1nn(C)c(OC(=O)N(C)C)c1Cc1ccc(-c2ccccc2-c2nn[nH]n2)cc1 [Exemple 82, Méthyl-1 n-Butyl-3 [(tétrazolyl-5)-2' biphényl-yl-4] méthyl-4 (N,N-diméthyl carbamoyl) oxy-5 pyrazole] | 71 | 47 |
| CCCc1nn(C)c(OCC(=O)OCC)c1Cc1ccc(NC(=O)c2ccccc2S(=O)(=O)O)cc1 [Exemple 45, Acide [[Méthyl-1 n-propyl-3 (Ethoxy carbonyl méthyloxy)-5 pyrazol-yl-4]méthylphényl-yl-4] amino carbonyl-2 benzène sulfonlque.] | 92 | 60 |
